Assay results taken from US20040092548A1, “OPHTHALMIC TREATMENT” (priority 1995, published 2004).
Counter-ions that a name gives are not always drawn.

Assays:
[1] = Ocular distribution study of tritiated propranolol hydrochloride; format: in vivo, rabbit
Method: 40 μl of 0.5% aqueous tritiated propranolol hydrochloride solution (200 μg) was administered via pipette into the conjunctival sac of twelve New Zealand white rabbit eyes. Seperately, 5 μl of 4% aqueous tritiated propranolol hydrochloride solution (200 μg) was applied as a jet or stream of droplets (with a diameter in the range of 200 μm to 400 μm) to the surface (cornea and/or conjunctiva) of twelve different New Zealand white rabbit eyes
Following each treatment, four eyes were ennucleated after 15 minutes, four after 30 minutes and the remaining four after 60 minutes. In each case, the animals were humanely killed prior to the ocular ennucleation procedure via an overdose of sodium pentobarbitol injected into a marginal ear vein. Each eye was then irrigated by instilling 100 μl of normal saline into the conjunctival sac using an automatic pipette and immediately blotting away excess saline with paper tissue to remove any radioactivity in the tear film. Following ennucleation and removal of the adnexal tissue, the cornea was washed with a second 100 μl of normal saline. The aqueous humor was then quickly removed by paracentesis with a 1 ml syringe and 26G needle. To this was then added an equal volume of trichloroacetic acid (TCA) solution (10% w/v) to bring the final concentration to 5% w/v TCA. Both eyes were then dissected from the posterior pole to allow removal of the vitreous humor and the lens, whilst the iris-cilary body was transferred to a tared sample tube. The cornea was then removed using a 12 mm trephine, and the limbal cornea and conjunctiva (with underlying sclera) cut free into a strip approximately 5 mm wide using a scalpel and scissors. Each sample was then weighed in a tared sample tube and at least 5 volumes of TCA (6% w/v) added. All tissue samples were subjected to sonication for 5 minutes, then centrifuged at 10 000 g.min. to yield a supernatent. Each supernatent was then extracted 3 times with 3 volumes of ether and, after evaporation of residual solvent, the aqueous residue was sampled and added to 5 ml of FluoronSafe XE “Scintron” scintillation fluid (BDH Chemicals, UK). Radioactivity was then determined by counting in a Packard 1600DR beta-scintillation counter. Data gathered as counts per minute was then converted into disintegrations per minute (dpm), using external standardisation, and expressed as dpm […] after adjusting for the total radioactivity in each dose. Due to the small number of samples per time point per treatment, statistical analysis was not considered appropriate for this study.
The results of this study are summarised for the different ocular tissues in tables 1 to 4 below, where the values shown represent dpm (disintegrations per minute) per mg of tissue.

[2] = cited from earlier work
[3] = tested on: white New Zealand rabbits; experiment: Mydriatic response (pupil dilation, RRmax) after ocular dosing of ephedrine hydrochloride; format: in vivo; settings: 5 μl of 5% solution (250 μg) as droplet stream compared with 5 μl 5% and 25 μl 1% instillates (250 μg each); rabbit
Method: Six white New Zealand rabbits were administered with the following dosage regimen:
I→25 μl of 1% aqueous ephedrine hydrochloride solution (250 μg) via pipette (instillate)
II→5 μl of 5% aqueous ephedrine hydrochloride solution (250 μg) via pipette (instillate)
III→5 μl of 5% aqueous ephedrine hydrochloride solution (250 μg) in a jet/stream of droplets of diameter in the range 200 to 400 μm.
Pupil diameter measurements were determined from photographs acquired using a Pentax ME super 35 mm camera fitted with a SMC Pentax 50 mm lens and a 2x converter. An aperture setting of 12, and a shutter speed of 1/15 was employed with a film speed of ISO 400 (Kodak Gold 400). The camera was held stationary on a tripod and positioned approximately 30-40 cm from the rabbits eye. Prior to each dosing period the animals were acclimatised to experimental conditions (constant light intensity, minimal distractions) for 20 min. The rabbits were placed in restraining boxes and settled before photographs and baseline pupil diameters were determined 5 min prior to dosing.
Pupillary diameters were determined from the developed colour prints (6×4) using an electronic micrometer (Digimatic Caliper, Mitutoyo Corp., Japan). […] The maximum response ratio (RRmax) for pupil dilation was then calculated from the photographs using the following relationship: […]

[4] = tested on: white New Zealand rabbits; experiment: Miotic response (pupil diameter) after ocular dosing of pilocarpine hydrochloride, randomised cross-over study; format: in vivo; settings: rabbit; for AUC (0-4 hours), area under the pupillary diameter vs. time curve / RR max: ± SD
Method: Ten white New Zealand rabbits were treated with the following dosage regimen in a randomised cross-over study:
30 μl of 1% aqueous pilocarpine hydrochloride solution (300 μg) was instilled via pipette into the conjunctival sac 5 μl of 1% aqueous pilocarpine hydrochloride solution (50 μg) was applied as a jet and/or stream of droplets (with a diameter in the range of 200 μm to 400 μm) to the surface of the cornea.
In order to determine pupil diameters, a metallic rule with a circular aperture of known diameter was orientated perpendicular to, and at an appropriate fixed distance from, a video camera fitted with a macro lens (Sony V8 Pro-CDD-V100E) throughout the study. During miotic measurements, the animals were positioned such that the left eye was parallel to the ruler and equidistant from the video camera. The video camera was actuated to project and amplify images of both the reference aperture and left eye onto the monitor screen. The diameters of both the reference aperture and pupil were then measured on the screen using a ruler placed on the projected image at an angle of approximately […]. The value of the pupil diameter was then calculated by multiplying the projected screen pupil diameter by the ratio of the actual reference diameter (8 mm) to the projected screen reference diameter (18 mm).
Pupil measurements were taken at approximately 60, 45, 30 and 15 minute intervals prior to administration of the treatments to provide a baseline value, and then at 15 minute intervals for the first hour after dosing. Thereafter, the pupil diameter was measured at 30 minute intervals for a minimum duration of 4 hours after dose administration.
For the purpose of statistical analysis of variants between treatments, the following parameters were determined: RR max=(pupil diameter at time t−pupil diameter at time 0)/pupil diameter at time 0; T max=the first time point at which the smallest pupillary diameter was observed; and AUC (0-4 hours)=the area under the pupillary diameter vs. time curve between 0 and 4 hours after treatment.
All significance tests were two-tailed and were performed at the 5% significance level. The statistical software SAS V607 and the PROC GLM procedure were used in the analysis.

[5] = 0.5% 40 μl large eyedrop (200 μg), 15 mins
[6] = 0.5% 40 μl large eyedrop (200 μg), 30 mins
[7] = 0.5% 40 μl large eyedrop (200 μg), 60 mins
[8] = 4.0% 5 μl jet and/or stream of droplets (200 μg), 15 mins
[9] = 4.0% 5 μl jet and/or stream of droplets (200 μg), 30 mins
[10] = 4.0% 5 μl jet and/or stream of droplets (200 μg), 60 mins
[11] = 5 μl eye drop loaded with 26.1 μg
[12] = 1% 5 μl jet and/or stream of droplets (50 μg) to cornea
[13] = 1% 30 μl large eyedrop (300 μg) instilled into conjunctival sac

Compound: CC(C)NCC(O)COc1cccc2ccccc12 (centres unmarked) [Propranolol, propranolol hydrochloride]
- Radioactivity in aqueous humor [1, 5]: 1310 dpm per mg of tissue
- Radioactivity in conjunctiva/sclera [1, 5]: 2569 dpm per mg of tissue
- Radioactivity in cornea [1, 5]: 5579 dpm per mg of tissue
- Radioactivity in iris-cilary body [1, 5]: 942 dpm per mg of tissue
- Radioactivity in aqueous humor [1, 6]: 960 dpm per mg of tissue
- Radioactivity in conjunctiva/sclera [1, 6]: 2838 dpm per mg of tissue
- Radioactivity in cornea [1, 6]: 3467 dpm per mg of tissue
- Radioactivity in iris-cilary body [1, 6]: 1033 dpm per mg of tissue
- Radioactivity in aqueous humor [1, 7]: 705 dpm per mg of tissue
- Radioactivity in conjunctiva/sclera [1, 7]: 1380 dpm per mg of tissue
- Radioactivity in cornea [1, 7]: 2945 dpm per mg of tissue
- Radioactivity in iris-cilary body [1, 7]: 799 dpm per mg of tissue
- Radioactivity in aqueous humor [1, 8]: 1845 dpm per mg of tissue
- Radioactivity in conjunctiva/sclera [1, 8]: 5286 dpm per mg of tissue
- Radioactivity in cornea [1, 8]: 5241 dpm per mg of tissue
- Radioactivity in iris-cilary body [1, 8]: 2256 dpm per mg of tissue
- Radioactivity in aqueous humor [1, 9]: 1176 dpm per mg of tissue
- Radioactivity in conjunctiva/sclera [1, 9]: 2259 dpm per mg of tissue
- Radioactivity in cornea [1, 9]: 3766 dpm per mg of tissue
- Radioactivity in iris-cilary body [1, 9]: 1482 dpm per mg of tissue
- Radioactivity in aqueous humor [1, 10]: 607 dpm per mg of tissue
- Radioactivity in conjunctiva/sclera [1, 10]: 1673 dpm per mg of tissue
- Radioactivity in cornea [1, 10]: 1861 dpm per mg of tissue
- Radioactivity in iris-cilary body [1, 10]: 586 dpm per mg of tissue
- Level reaching the iris-ciliary body from jet and/or stream of droplets relative to eyedrop ([1]; 15 minute time point, 200 μg each): more than double
- Radioactivity in ocular tissues ([1]; all ocular tissues, all time points, both treatments): Significant radioactivity was detected

Compound: CC[C@@H]1C(=O)OC[C@@H]1Cc1cncn1C [pilocarpine nitrate]
- Drug available for potential systemic absorption [2, 11]: 25.7 µg
- Fraction of drug absorbed into the eye [2, 11]: 0.41 µg
- Drug left to be absorbed systemically ([2]; 25 μl drop loaded with 67.8 μg): 67.4 µg
- Drug penetrated the eye ([2]; 25 μl drop loaded with 67.8 μg): 0.36 µg

Compound: CN[C@@H](C)[C@H](O)c1ccccc1 [Ephedrine, ephedrine hydrochloride]
- Mydriatic response (RRmax vs time, FIG. 1) [3]: more pronounced and maintained over a longer duration compared to both instillates

Compound: CC[C@@H]1C(=O)OC[C@@H]1Cc1cncn1C [Pilocarpine, pilocarpine hydrochloride]
- AUC (0-4 hours), area under the pupillary diameter vs. time curve [4, 12]: 3827 ± 312 mmMin.
- RR max [4, 12]: 12.3 ± 5.2 %
- AUC (0-4 hours), area under the pupillary diameter vs. time curve [4, 13]: 3871 ± 340 mmMin.
- RR max [4, 13]: 15.2 ± 4.0 %
- Pupil diameter after administration ([4]; both dose forms (30 μl eyedrop 300 μg; 5 μl jet 50 μg), after 15 minutes): reduction in pupil diameter was evident
- Time after treatment at which the miotic effect started to disappear ([4]; both dose forms): 60 to 90 min
- Time after which pupil measurements had fully recovered to predose levels ([4]; both dose forms): 120 min
